Experimental data from ChEMBL document CHEMBL1137635, “Multiple antibiotics exert delayed effects against the Plasmodium falciparum apicoplast” (Antimicrob Agents Chemother, 2007).
The source made the active and inactive calls. No cut-off for these calls is given here.

Columns and labels:
Plasmodium falciparum [1] = experiment: Antimalarial activity as 3rd generation parasitaemia against chloroquine-sensitive Plasmodium falciparum 3D7 infected human erythrocytes after 96 hr at 25 nM dosed 24-48 hrs post infection; format: functional
Plasmodium falciparum [2] = experiment: Antimalarial activity as 3rd generation parasitaemia after 96 hrs against chloroquine-sensitive Plasmodium falciparum 3D7 infected human erythrocytes at 25 nM 36-48 hrs post invasion; format: functional
Plasmodium falciparum [3] = experiment: Antimalarial activity as 2nd generation ring-stage chloroquine-sensitive Plasmodium falciparum 3D7 after 48 hrs by flow cytometry; format: functional, organism-based; conditions: 3D7, 48 h
Plasmodium falciparum [4] = experiment: Antimalarial activity as 3rd generation ring-stage chloroquine-sensitive Plasmodium falciparum 3D7 after 48 hrs dose then 48 hrs drug-free; format: functional, organism-based; conditions: 3D7, 48 h
Plasmodium falciparum [5] = experiment: Antimalarial activity as 2nd generation ring-stage chloroquine-resistant Plasmodium falciparum W2 after 48 hrs by flow cytometry; format: functional, organism-based; conditions: W2, 48 h
Plasmodium falciparum [6] = experiment: Antimalarial activity as 3rd generation ring-stage chloroquine-resistant Plasmodium falciparum W2 after 48 hrs dose then 48 hrs drug-free; format: functional, organism-based; conditions: W2, 48 h
Plasmodium falciparum [7] = experiment: Antimalarial activity as segregation of apicoplasts against chloroquine-sensitive Plasmodium falciparum 3D7 infected human erythrocytes at 25 nM 96 hrs post infection; format: functional, organism-based
Plasmodium falciparum [8] = experiment: Antimalarial activity as arrested schizont maturation in chloroquine-sensitive Plasmodium falciparum 3D7 infected human erythrocytes after 48 hrs at 25 nM dosed 96 hrs post infection; format: functional, organism-based
Plasmodium falciparum [9] = experiment: Antimalarial activity as abnormal apicoplast morphology in chloroquine-sensitive ACP1-GFP-labeled Plasmodium falciparum 3D7 trophozoite infected human erythrocytes at 2xIC50 dosed 96 hrs post infection; format: functional
Plasmodium falciparum [10] = experiment: Antimalarial activity as parasitaemia against chloroquine-sensitive ACP1-GFP-labeled Plasmodium falciparum 3D7 trophozoite infected human erythrocytes at 2xIC50 dosed 96 hrs post infection; format: functional
Plasmodium falciparum [11] = experiment: Antimalarial activity as segregation of apicoplast in chloroquine-sensitive ACP1-GFP-labeled Plasmodium falciparum 3D7 schizont infected human erythrocytes at 25 nM dosed 96 hrs post infection; format: functional, organism-based
Plasmodium falciparum [12] = experiment: Antimalarial activity as abnormal apicoplast morphology in chloroquine-sensitive ACP1-GFP-labeled Plasmodium falciparum 3D7 after 48 hrs at 2xIC50 dosed 96 hrs post infection; format: functional, organism-based
Plasmodium falciparum [13] = experiment: Antimalarial activity in chloroquine-sensitive ACP1-GFP-labeled Plasmodium falciparum 3D7 after 48 hrs at 2xIC50 dosed 96 hrs post infection; format: functional, organism-based
Plasmodium falciparum [14] = experiment: Antimalarial activity as 3rd generation parasitaemia against chloroquine-sensitive Plasmodium falciparum 3D7 infected human erythrocytes after 96hrs at 25 nM dosed 0-12 hrs post infection; format: functional
Plasmodium falciparum [15] = experiment: Antimalarial activity as 3rd generation parasitaemia against chloroquine-sensitive Plasmodium falciparum 3D7 infected human erythrocytes after 96hrs at 25 nM dosed 0-24 hrs post infection; format: functional
Plasmodium falciparum [16] = experiment: Antimalarial activity as 3rd generation parasitaemia against chloroquine-sensitive Plasmodium falciparum 3D7 infected human erythrocytes after 96hrs at 25 nM dosed 0-36 hrs post infection; format: functional
Plasmodium falciparum [17] = experiment: Antimalarial activity as 3rd generation parasitaemia against chloroquine-sensitive Plasmodium falciparum 3D7 infected human erythrocytes after 96hrs at 25 nM dosed 0-48 hrs post infection; format: functional
Plasmodium falciparum [18] = experiment: Antimalarial activity as 3rd generation parasitaemia against chloroquine-sensitive Plasmodium falciparum 3D7 infected human erythrocytes after 96hrs at 25 nM dosed 12-24 hrs post infection; format: functional
Plasmodium falciparum [19] = experiment: Antimalarial activity as3rd generation parasitaemia against chloroquine-sensitive Plasmodium falciparum 3D7 infected human erythrocytes after 96 hrs at 25 nM dosed 12-36 hrs post infection; format: functional
Plasmodium falciparum [20] = experiment: Antimalarial activity as 3rd generation parasitaemia against chloroquine-sensitive Plasmodium falciparum 3D7 infected human erythrocytes after 96hrs at 25 nM dosed 12-48 hrs post infection; format: functional
Plasmodium falciparum [21] = experiment: Antimalarial activity as 3rd generation parasitaemia against chloroquine-sensitive Plasmodium falciparum 3D7 infected human erythrocytes after 96hrs at 25 nM dosed 24-36 hrs post infection; format: functional
Plasmodium falciparum [22] = experiment: Antimalarial activity as segregation of apicoplasts against chloroquine-sensitive Plasmodium falciparum 3D7 infected in human erythrocytes at 6 uM 96 hrs post infection; format: functional, organism-based
Plasmodium falciparum [23] = experiment: Antimalarial activity as segregation of apicoplasts against chloroquine-sensitive ACP1-GFP-labeled Plasmodium falciparum 3D7 schizont infected human erythrocytes at 6 uM 96 hrs post infection; format: functional, organism-based
Plasmodium falciparum [24] = experiment: Antimalarial activity as schizont arrest after 48 hrs in chloroquine-sensitive Plasmodium falciparum 3D7 infected human erythrocytes at 6 uM 96 hrs post invasion by Giemsa staining; format: functional, organism-based
[25] = Cmax in patient with bronchitis at 500 mg, po twice daily for 3 days; conditions: human, in vivo
[26] = Tmax in patient with bronchitis at 500 mg, po twice daily for 3 days; conditions: human, in vivo
Plasmodium falciparum [27] = experiment: Antimalarial activity as 3rd generation parasitaemia against chloroquine-sensitive Plasmodium falciparum 3D7 infected human erythrocytes after 96hrs at 6 uM dosed 0-12 hrs post infection; format: functional
Plasmodium falciparum [28] = experiment: Antimalarial activity as 3rd generation parasitaemia against chloroquine-sensitive Plasmodium falciparum 3D7 infected human erythrocytes after 96hrs at 6 uM dosed 0-24 hrs post infection; format: functional
Plasmodium falciparum [29] = experiment: Antimalarial activity as 3rd generation parasitaemia against chloroquine-sensitive Plasmodium falciparum 3D7 infected human erythrocytes after 96hrs at 6 uM dosed 0-36 hrs post infection; format: functional
Plasmodium falciparum [30] = experiment: Antimalarial activity as 3rd generation parasitaemia against chloroquine-sensitive Plasmodium falciparum 3D7 infected human erythrocytes after 96hrs at 6 uM dosed 12-24 hrs post infection; format: functional
Plasmodium falciparum [31] = experiment: Antimalarial activity as 3rd generation parasitaemia against chloroquine-sensitive Plasmodium falciparum 3D7 infected human erythrocytes after 96hrs at 6 uM dosed 12-36 hrs post infection; format: functional
Plasmodium falciparum [32] = experiment: Antimalarial activity as 3rd generation parasitaemia against chloroquine-sensitive Plasmodium falciparum 3D7 infected human erythrocytes after 96hrs at 6 uM dosed 12-48 hrs post infection; format: functional
Plasmodium falciparum [33] = experiment: Antimalarial activity as 3rd generation parasitaemia against chloroquine-sensitive Plasmodium falciparum 3D7 infected human erythrocytes after 96hrs at 6 uM dosed 24-36 hrs post infection; format: functional
Plasmodium falciparum [34] = experiment: Antimalarial activity as 3rd generation parasitaemia against chloroquine-sensitive Plasmodium falciparum 3D7 infected human erythrocytes after 96hrs at 6 uM dosed 24-48 hrs post infection; format: functional
Plasmodium falciparum [35] = experiment: Antimalarial activity as 3rd generation parasitaemia against chloroquine-sensitive Plasmodium falciparum 3D7 infected human erythrocytes after 96hrs at 6 uM dosed 36-48 hrs post infection; format: functional
Plasmodium falciparum [36] = experiment: Antimalarial activity as 3rd generation after 96 hrs against chloroquine-sensitive Plasmodium falciparum 3D7 infected human erythrocytes at 6 uM 0-48 hrs post invasion; format: functional
Plasmodium falciparum [37] = experiment: Antimalarial activity as arrested schizont maturation in chloroquine-sensitive Plasmodium falciparum 3D7 infected human erythrocytes after 48 hrs at 100 nM dosed 96 hrs post infection; format: functional, organism-based
Plasmodium falciparum [38] = experiment: Antimalarial activity as segregation of apicoplast in chloroquine-sensitive ACP1-GFP-labeled Plasmodium falciparum 3D7 schizont infected human erythrocytes at 100 nM dosed 96 hrs post infection; format: functional, organism-based
Plasmodium falciparum [39] = experiment: Antimalarial activity as segregation of apicoplast in chloroquine-sensitive Plasmodium falciparum 3D7 progeny infected human erythrocytes at 100 nM dosed 96 hrs post infection; format: functional, organism-based
[40] = Cmax in human at 1000 mg, po once daily for 3 days; format: ADME, organism-based; parameters: dose 1000 mg, route oral; conditions: in vivo
[41] = Tmax in human at 1000 mg, po once daily for 3 days; format: ADME, organism-based; conditions: in vivo
[42] = Half life in human at 1000 mg, po once daily for 3 days; format: ADME, organism-based; conditions: in vivo
Plasmodium falciparum [43] = experiment: Antimalarial activity as 3rd generation parasitaemia against chloroquine-sensitive Plasmodium falciparum 3D7 infected human erythrocytes after 96 hrs at 100 nM dosed 0-12 hrs post infection; format: functional
Plasmodium falciparum [44] = experiment: Antimalarial activity as 3rd generation parasitaemia against chloroquine-sensitive Plasmodium falciparum 3D7 infected human erythrocytes after 96hrs at 100 nM dosed 0-24 hrs post infection; format: functional
Plasmodium falciparum [45] = experiment: Antimalarial activity as 3rd generation parasitaemia against chloroquine-sensitive Plasmodium falciparum 3D7 infected human erythrocytes after 96hrs at 100 nM dosed 0-36 hrs post infection; format: functional
Plasmodium falciparum [46] = experiment: Antimalarial activity as 3rd generation parasitaemia against chloroquine-sensitive Plasmodium falciparum 3D7 infected human erythrocytes after 96 hrs at 100 nM dosed 0-48 hrs post infection; format: functional
Plasmodium falciparum [47] = experiment: Antimalarial activity as 3rd generation parasitaemia against chloroquine-sensitive Plasmodium falciparum 3D7 infected human erythrocytes after 96hrs at 100 nM dosed 12-24 hrs post infection; format: functional
Plasmodium falciparum [48] = experiment: Antimalarial activity as 3rd generation parasitaemia against chloroquine-sensitive Plasmodium falciparum 3D7 infected human erythrocytes assessed after 96hrs at 100 nM dosed 12-36 hrs post infection; format: functional
Plasmodium falciparum [49] = experiment: Antimalarial activity as 3rd generation parasitaemia against chloroquine-sensitive Plasmodium falciparum 3D7 infected human erythrocytes after 96hrs at 100 nM dosed 12-48 hrs post infection; format: functional
Plasmodium falciparum [50] = experiment: Antimalarial activity as 3rd generation parasitaemia against chloroquine-sensitive Plasmodium falciparum 3D7 infected human erythrocytes after 96hrs at 100 nM dosed 24-36 hrs post infection; format: functional
Plasmodium falciparum [51] = experiment: Antimalarial activity as 3rd generation parasitaemia against chloroquine-sensitive Plasmodium falciparum 3D7 infected human erythrocytes after 96hrs at 100 nM dosed 24-48 hrs post infection; format: functional
Plasmodium falciparum [52] = experiment: Antimalarial activity as 3rd generation parasitaemia against chloroquine-sensitive Plasmodium falciparum 3D7 infected human erythrocytes after 96hrs at 100 nM dosed 36-48 hrs post infection; format: functional
[53] = Cmax in patient with kidney disease at 300 mg, po; format: ADME, organism-based; parameters: dose 300 mg, route oral; conditions: human, in vivo
[54] = Tmax in patient with kidney disease at 300 mg, po; format: ADME, organism-based; conditions: human, in vivo
Homo sapiens = experiment: Half life in patient with kidney disease at 300 mg, po; format: ADME, organism-based; conditions: in vivo

## CCC[C@@H]1C[C@@H](C(=O)N[C@@H]([C@H]2O[C@H](SC)[C@H](O)[C@@H](O)[C@H]2O)[C@H](C)Cl)N(C)C1 [CLINDAMYCIN]
Plasmodium falciparum [1]
  Activity: 78%
Plasmodium falciparum [2]
  Activity: 63%
Plasmodium falciparum [3]
  IC50: > 100 µM
Plasmodium falciparum [4]
  IC50: 8.81 nM
Plasmodium falciparum [5]
  IC50: > 100 µM
Plasmodium falciparum [6]; read-out: IC50
  IC50: 3.12 nM
Plasmodium falciparum [7]
  Activity: Active
Plasmodium falciparum [8]
  Activity: inactive
Plasmodium falciparum [9]
  Activity: 85.2%
Plasmodium falciparum [10]
  Activity: 99.3%
Plasmodium falciparum [11]
  Activity: Active
Plasmodium falciparum [12]
  Activity: Active
Plasmodium falciparum [13]
  Activity: Active
Plasmodium falciparum [14]
  Activity: 87%
Plasmodium falciparum [15]
  Activity: 49%
Plasmodium falciparum [16]
  Activity: 21%
Plasmodium falciparum [17]
  Activity: 11%
Plasmodium falciparum [18]
  Activity: 41%
Plasmodium falciparum [19]
  Activity: 15%
Plasmodium falciparum [20]
  Activity: 19%
Plasmodium falciparum [21]
  Activity: 52%

## O=C(O)c1cn(C2CC2)c2cc(N3CCNCC3)c(F)cc2c1=O [CIPROFLOXACIN]
Plasmodium falciparum [3]
  IC50: 9.44 µM
Plasmodium falciparum [4]
  IC50: 3040 nM
Plasmodium falciparum [5]
  IC50: 24.9 µM
Plasmodium falciparum [6]
  IC50: 1750 nM
Plasmodium falciparum [22]
  Activity: Active
Plasmodium falciparum [23]
  Activity: Active
Plasmodium falciparum [24]
  Activity: inactive
Plasmodium falciparum [9]
  Activity: 81.4%
Plasmodium falciparum [10]
  Activity: 98.6%
[25]
  Cmax at 72 h: 7.6 µM
[26]
  Tmax at 72 h: 36 min
Plasmodium falciparum [27]
  Activity: 80%
Plasmodium falciparum [28]
  Activity: 67%
Plasmodium falciparum [29]
  Activity: 35%
Plasmodium falciparum [30]
  Activity: 63%
Plasmodium falciparum [31]
  Activity: 23%
Plasmodium falciparum [32]
  Activity: 24%
Plasmodium falciparum [33]
  Activity: 70%
Plasmodium falciparum [34]
  Activity: 74%
Plasmodium falciparum [35]
  Activity: 108%
Plasmodium falciparum [36]
  Activity: 13%

## CC[C@H]1OC(=O)[C@H](C)[C@@H](O[C@H]2C[C@@](C)(OC)[C@@H](O)[C@H](C)O2)[C@H](C)[C@@H](O[C@@H]2O[C@H](C)C[C@H](N(C)C)[C@H]2O)[C@](C)(O)C[C@@H](C)CN(C)[C@H](C)[C@@H](O)[C@]1(C)O [AZITHROMYCIN]
Plasmodium falciparum [3]
  IC50: 8.67 µM
Plasmodium falciparum [4]
  IC50: 52.7 nM
Plasmodium falciparum [5]
  IC50: 1.46 µM
Plasmodium falciparum [6]; read-out: IC50
  IC50: 31 nM
Plasmodium falciparum [37]
  Activity: inactive
Plasmodium falciparum [38]
  Activity: Active
Plasmodium falciparum [39]
  Activity: Active
Plasmodium falciparum [9]
  Activity: 83.4%
Plasmodium falciparum [10]
  Activity: 105%
[40]
  Cmax: 1100 nM
[41]
  Tmax: 2.4 h
[42]
  half-life: 3.08 days
Plasmodium falciparum [43]
  Activity: 91%
Plasmodium falciparum [44]
  Activity: 61%
Plasmodium falciparum [45]
  Activity: 30%
Plasmodium falciparum [46]
  Activity: 17%
Plasmodium falciparum [47]
  Activity: 59%
Plasmodium falciparum [48]
  Activity: 28%
Plasmodium falciparum [49]
  Activity: 18%
Plasmodium falciparum [50]
  Activity: 79%
Plasmodium falciparum [51]
  Activity: 68%
Plasmodium falciparum [52]
  Activity: 113%

## CCN(CC)CCCC(C)Nc1ccnc2cc(Cl)ccc12 (configuration not stated) [CHLOROQUINE]
[53]
  Cmax: 240 nM
[54]
  Tmax: 6.6 h
Homo sapiens
  t1/2: 10 days
